According to PMC8920097, “Prediction of hERG inhibition of drug discovery compounds using biomimetic HPLC measurements” (ADMET & DMPK, 2021):
Read-outs that look alike come from different tables or passages of the source.

Tests used:
[1] = design: method as in PMID 11472245; settings: cited from earlier work
HSA [2] = settings: calibration set; log k = log (%binding/(101-%binding)) from literature % binding
HSA [3] = settings: calibration set; equilibrium dialysis; literature; cited from earlier work
AGP [4] = settings: calibration set; equilibrium dialysis; literature; cited from earlier work
AGP [5] = test: Literature % binding to AGP by equilibrium dialysis (calibration set); settings: log k = log (%binding/(101-%binding)) from literature % binding
[6] = design: method as in doi:10.5599/admet.5.1.373; settings: calibration set; predetermined by isocratic measurements; cited from earlier work
[7] = CHI lipophilicity by gradient reversed-phase HPLC (Gemini NX-C-18); settings: for chromatographic logD: Gemini NX-C-18 reversed-phase HPLC column, pH 7.4
Protocol: The Chromatographic Hydrophobicity Index (CHI) was measured using the compounds’ calibrated gradient retention times obtained from an Agilent 1100 HPLC fitted with a Gemini NX-C-18 column (Phenomenex Ltd Macclesfield, UK) with dimensions of 50 x 3 mm and 5 μm particle size. […] The mobile phase B was 100 % acetonitrile. […] An acetonitrile linear gradient was used from 0 to 100 %. […] The retention time values for a standard set of compounds listed in Table 1 were used to convert the drug retention times to CHI values.

[8] = biological target: human serum albumin (HSA) (Homo sapiens, UniProt P02768); test: Protein binding on Chiralpak HSA HPLC column; settings: pH 7.4, Chiralpak HSA
Protocol: (§1) The measurement of the biomimetic properties of the available drugs was conducted in our laboratories. Generic gradient HPLC methods were used to determine the chromatographic hydrophobicity Index (CHI) using mobile phases at three different pH values. The protein binding of the compounds was measured using immobilised human serum albumin (HSA), and alpha-1-acid-glycoprotein (AGP) stationary phases. The phospholipid-binding was measured using the immobilised artificial membrane (IAM) stationary phase. The aim was to establish relationships between the cardiotoxicity potential and the biomimetic binding properties of the drugs and to evaluate their predictive performance.

[9] = tested on: alpha-1-acid-glycoprotein (AGP); test: Protein binding on Chiralpak AGP HPLC column; settings: pH 7.4, Chiralpak AGP
Protocol: as §1

[10] = Phospholipid binding at pH 7.4 on IAM PC.DD2 HPLC column; type: physicochemical; design: key to CHI IAM: approximates acetonitrile concentration (%) in mobile phase at elution; settings: for log k IAM: pH 7.4, derived from CHI IAM by equation 1; for CHI IAM: pH 7.4
Protocol: The phospholipid-binding was measured using an IAM PC.DD2 column with dimensions of 100 x 4.6 mm (Regis Technologies Inc., Morton Grove, IL, USA). The gradient retention times were measured using a 50 mM ammonium acetate mobile phase with the pH adjusted to 7.4. The mobile phase flow rate was 1.5 mL/min. […] The cycle time was 6 min, plus an additional 1 min equilibration time was applied while the injector prepared for the next injection. The gradient retention times were calibrated with the acetophenone homologues for which the CHI IAM values have been established using isocratic measurements. […] The CHI Index on the IAM column (CHI IAM) approximates the acetonitrile concentration in the mobile phase when the compound elutes. […] The CHI IAM values have been converted to log k IAM values derived from the CHI IAM values using equation 1. It represents the equivalent value derived from several isocratic measurements with extrapolated log retention factors to 100 % aqueous mobile phase. The log k IAM values can be converted to log K (IAM) values and show linear relationships with the octanol/water partition coefficients.

[11] = Charge character of the drugs at pH 7.4; type: physicochemical
hERG channel = settings: cited from earlier work
[12] = reversed-phase HPLC, Gemini NX-C-18 column (50 x 3 mm, 5 µm)
[13] = literature values, mean where several reported, molar

Sequence of human serum albumin (HSA) (P02768 25-609): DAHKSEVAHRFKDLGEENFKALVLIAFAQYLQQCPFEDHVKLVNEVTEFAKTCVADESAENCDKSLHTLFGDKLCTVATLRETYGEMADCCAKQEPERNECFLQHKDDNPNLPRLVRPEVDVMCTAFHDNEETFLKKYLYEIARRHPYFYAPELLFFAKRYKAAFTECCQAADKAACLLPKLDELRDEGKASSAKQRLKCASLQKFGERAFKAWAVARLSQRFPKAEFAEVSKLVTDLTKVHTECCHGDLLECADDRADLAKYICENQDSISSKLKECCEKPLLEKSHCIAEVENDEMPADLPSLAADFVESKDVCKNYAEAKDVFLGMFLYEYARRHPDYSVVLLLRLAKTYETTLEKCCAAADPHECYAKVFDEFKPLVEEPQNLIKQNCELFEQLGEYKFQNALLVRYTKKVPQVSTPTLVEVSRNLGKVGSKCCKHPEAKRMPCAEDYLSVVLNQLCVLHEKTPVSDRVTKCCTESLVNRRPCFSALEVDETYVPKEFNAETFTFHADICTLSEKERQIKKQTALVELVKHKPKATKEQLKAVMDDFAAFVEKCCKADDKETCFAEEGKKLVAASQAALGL

c1ccc2[nH]ccc2c1 [Indole]
CHI at pH 2.6 [1]: 72.1
CHI at pH 7.4 [1]: 71.5
CHI at pH 10.5 [1]: 72.1

Cn1c(=O)c2[nH]cnc2n(C)c1=O [Theophylline]
CHI at pH 2.6 ([1]; calibration set): 17.9
CHI at pH 7.4 ([1]; calibration set): 18.4
CHI at pH 10.5 ([1]; calibration set): 5.0

CNC(=C[N+](=O)[O-])NCCSCc1csc(CN(C)C)n1 [Nizatidine]
log k HSA (HSA [2]): -0.6
%HSA (HSA [3]): 20.4%
% AGP (AGP [4]): 37.1%
log k AGP (AGP [5]): -0.2

COc1cc2c(c(OC)c1OC)-c1ccc(OC)c(=O)cc1[C@@H](NC(C)=O)CC2 [Colchicine]
CHI at pH 2.6 [1]: 43.9
CHI at pH 7.4 [1]: 45.0
CHI at pH 10.5 [1]: 43.9

CCCC(=O)c1ccccc1 [Butyrophenone]
CHI at pH 2.6 ([1]; calibration set): 87.3
CHI at pH 7.4 ([1]; calibration set): 87.5
CHI at pH 10.5 ([1]; calibration set): 87.3
CHI IAM [6]: 32.0

c1ccc2[nH]cnc2c1 [Benzimidazole]
CHI at pH 2.6 ([1]; calibration set): 6.3
CHI at pH 7.4 ([1]; calibration set): 34.3
CHI at pH 10.5 ([1]; calibration set): 30.6

CCCCCC(=O)c1ccccc1 [Hexanophenone]
CHI IAM [6]: 41.8

CCC(=O)c1ccccc1 [Propiophenone]
CHI at pH 2.6 ([1]; calibration set): 77.4
CHI at pH 7.4 ([1]; calibration set): 77.4
CHI at pH 10.5 ([1]; calibration set): 77.4
CHI IAM [6]: 25.9

CC(=O)Nc1ccc(O)cc1 [Paracetamol]
log k HSA (HSA [2]): -0.8
CHI IAM [6]: 2.9
%HSA (HSA [3]): 14.0%
% AGP (AGP [4]): 3.2%
log k AGP (AGP [5]): -1.5

COc1ccc(CCN2CCC(Nc3nc4ccccc4n3Cc3ccc(F)cc3)CC2)cc1 [Astemizole]
chromatographic logD [7]: 2.68
chromatographic logP [7, 12]: 3.52
log k HSA [8]: 1.17
log k AGP [9]: 1.12
log k IAM [10]: 2.77
Charge [11]: Basic
hERG pIC50 (hERG channel): 6.69

COc1cc(Cc2cnc(N)nc2N)cc(OC)c1OC [Trimethoprim]
log k HSA [8]: -0.05
log k AGP [9]: -0.07
log k IAM [10]: 1.01
log k HSA (HSA [2]): -0.2
hERG pIC50 (hERG channel; [13]): 3.62
%HSA (HSA [3]): 37.6%
% AGP (AGP [4]): 46.2%
log k AGP (AGP [5]): -0.1

COC(=O)C1=C(C)NC(C)=C(C(=O)OCCN(C)Cc2ccccc2)C1c1cccc([N+](=O)[O-])c1 (stereo not drawn) [Nicardipine]
log k HSA (HSA [2]): 1.2
% AGP (AGP [4]): 87.0%
log k AGP (AGP [5]): 0.8

CCCCN1CCCCC1C(=O)Nc1c(C)cccc1C (stereo not drawn) [Bupivacaine]
chromatographic logD [7]: 3.06
chromatographic logP [7, 12]: 3.97
log k HSA [8]: -0.10
log k AGP [9]: 1.35
CHI IAM [10]: 41.66
log k IAM [10]: 2.34
Charge [11]: Weak Base
hERG pIC50 (hERG channel; [13]): 5.51

Nc1nnc(-c2cccc(Cl)c2Cl)c(N)n1 [Lamotrigine]
chromatographic logD [7]: 0.86
chromatographic logP [7, 12]: 0.81
log k HSA [8]: 0.16
log k AGP [9]: -0.33
CHI IAM [10]: 23.25
log k IAM [10]: 1.49
Charge [11]: Weak Base
hERG pIC50 (hERG channel): 3.55

CC(C)NCC(O)COc1cccc2ccccc12 (stereo not drawn) [Propranolol]
log k AGP [9]: 0.84
log k IAM [10]: 2.36
Charge [11]: Basic
log k HSA (HSA [2]): 0.3
%HSA (HSA [3]): 66.6%
% AGP (AGP [4]): 86.0%
log k AGP (AGP [5]): 0.8

COc1ccc2c(c1)c(CC(=O)O)c(C)n2C(=O)c1ccc(Cl)cc1 [Indomethacin]
chromatographic logP [7]: 3.31
chromatographic logD [7]: 1.47
log k AGP [9]: 0.18
CHI IAM [10]: 30.11
log k IAM [10]: 1.81
Charge [11]: Acidic
log k HSA (HSA [2]): 1.8
hERG pIC50 (hERG channel): 3.72
% AGP (AGP [4]): 56.0%
log k AGP (AGP [5]): 0.1

CC(=O)Nc1ccccc1 [Acetanilide]
CHI IAM [6]: 11.5

COC(=O)C1=C(C)NC(C)=C(C(=O)OC(C)C)C1c1cccc2nonc12 (stereo not drawn) [Isradipine]
chromatographic logD [7]: 3.25
chromatographic logP [7, 12]: 3.29
log k HSA [8]: 1.19
log k AGP [9]: 1.32
log k IAM [10]: 2.21
Charge [11]: Neutral
hERG pIC50 (hERG channel; [13]): 5.71

CC(=O)c1ccccc1 [Acetophenone]
CHI at pH 2.6 ([1]; calibration set): 64.1
CHI at pH 7.4 ([1]; calibration set): 65.1
CHI at pH 10.5 ([1]; calibration set): 64.1
CHI IAM [6]: 17.2

CCCCCCCC(=O)c1ccccc1 [Octanophenone]
CHI IAM [6]: 49.4

CC[C@H]1OC(=O)[C@H](C)[C@@H](O[C@H]2C[C@@](C)(OC)[C@@H](O)[C@H](C)O2)[C@H](C)[C@@H](O[C@@H]2O[C@H](C)C[C@H](N(C)C)[C@H]2O)[C@](C)(O)C[C@@H](C)/C(=N\OCOCCOC)[C@H](C)[C@@H](O)[C@]1(C)O [Roxithromycin]
chromatographic logD [7]: 1.95
chromatographic logP [7, 12]: 3.7
log k HSA [8]: -0.07
log k AGP [9]: 0.60
CHI IAM [10]: 51.33
log k IAM [10]: 2.78
Charge [11]: Basic
hERG pIC50 (hERG channel; [13]): 4.44

NC(=O)N1c2ccccc2C=Cc2ccccc21 [Carbamazepine]
chromatographic logD [7]: 1.22
chromatographic logP [7, 12]: 1.33
log k HSA [8]: 0.07
log k AGP [9]: -0.85
CHI IAM [10]: 23.98
log k IAM [10]: 1.53
Charge [11]: Neutral
log k HSA (HSA [2]): 0.5
hERG pIC50 (hERG channel; [13]): 3.98
%HSA (HSA [3]): 75.0%
% AGP (AGP [4]): 65.0%
log k AGP (AGP [5]): 0.3

Cc1nccn1CC1CCc2c(c3ccccc3n2C)C1=O (stereo not drawn) [Ondansetron]
chromatographic logD [7]: 1.33
chromatographic logP [7, 12]: 1.66
log k HSA [8]: 0.54
log k AGP [9]: 1.30
CHI IAM [10]: 39.01
log k IAM [10]: 2.22
Charge [11]: Weak Base
hERG pIC50 (hERG channel; [13]): 5.73

CCCCN1CCCC[C@H]1C(=O)Nc1c(C)cccc1C [Levobupivacaine]
chromatographic logD [7]: 3.25
chromatographic logP [7, 12]: 4.2
log k HSA [8]: 0.13
log k AGP [9]: 1.25
CHI IAM [10]: 41.83
log k IAM [10]: 2.34
Charge [11]: Weak Base
hERG pIC50 (hERG channel; [13]): 5.48

CCCCC1=NC2(CCCC2)C(=O)N1Cc1ccc(-c2ccccc2-c2nnn[nH]2)cc1 [Irbesartan]
chromatographic logD [7]: 1.39
chromatographic logP [7, 12]: 2
log k HSA [8]: 1.30
log k AGP [9]: 1.10
CHI IAM [10]: 26.14
log k IAM [10]: 1.62
Charge [11]: Zwitterionic
hERG pIC50 (hERG channel; [13]): 4.71

CCCCC(=O)c1ccccc1 [Valerophenone]
CHI at pH 2.6 ([1]; calibration set): 96.4
CHI at pH 7.4 ([1]; calibration set): 96.2
CHI at pH 10.5 ([1]; calibration set): 96.4
CHI IAM [6]: 37.3

O=C(O)Cc1ccccc1Nc1c(Cl)cccc1Cl [Diclofenac]
log k AGP (AGP [5]): 0.2

CCCCCCC(=O)c1ccccc1 [Heptanophenone]
CHI IAM [6]: 45.7

Cn1c(=O)c2nc(-c3ccccc3)[nH]c2n(C)c1=O [Phenyl theophylline]
CHI at pH 2.6 ([1]; calibration set): 51.7
CHI at pH 7.4 ([1]; calibration set): 51.2
CHI at pH 10.5 ([1]; calibration set): 51.3

O=C(NCC1CCCCN1)c1cc(OCC(F)(F)F)ccc1OCC(F)(F)F (stereo not drawn) [Flecainide]
chromatographic logD [7]: 1.68
chromatographic logP [7, 12]: 3.01
log k HSA [8]: -0.05
log k AGP [9]: 0.16
log k IAM [10]: 2.33
Charge [11]: Basic
hERG pIC50 (hERG channel; [13]): 5.25

c1ccc(-c2nn[nH]n2)cc1 [Phenyl tetrazole]
CHI at pH 2.6 ([1]; calibration set): 42.2
CHI at pH 7.4 ([1]; calibration set): 23.6
CHI at pH 10.5 ([1]; calibration set): 16.0

O=C1NC(=O)C(c2ccccc2)(c2ccccc2)N1 [Phenytoin]
chromatographic logD [7]: 1.73
chromatographic logP [7, 12]: 1.85
log k HSA [8]: 0.69
log k AGP [9]: 0.15
CHI IAM [10]: 29.66
log k IAM [10]: 1.78
Charge [11]: Weak Acid
hERG pIC50 (hERG channel): 3.71
